Measured values: patent US7615564B2, “Isoquinoline derivatives having kinasae inhibitory activity and drugs containing the same” (Kirin Beer Kabushiki Kaisha, priority 2002, dated 2009)
Marks after values point to notes of the source that are not given here.

Tests used:
[1] = tested on: Mouse-derived CCR2 overexpressing human-derived histiocyte lymphoma (U937/CCR2); test: Leukocyte migration inhibitory activity (MCP-1 induced migration, CHEMOTAXICELL); assay type: cell-based; conditions: U-937, test compound concentration 10 μg/ml, MCP-1 ligand, migration 1 hr
Procedure: Mouse-derived CCR2 overexpressing human-derived histiocyte lymphoma (U937/CCR2), was suspended in a 0.1% BSA-containing RPMI 1640 medium, to which a test compound had been added (5×10^6/ml), and the suspension was incubated for 20 min. A chemical solution (500 μl) (0.1% BSA-containing RPMI 1640 medium DMSO 1%), to which an MCP-1 ligand (1 μM) and the test compound had been added, was added to a 24-well plate. CHEMOTAXICELL was put thereon, and 200 μl of the cell suspension was added to the top layer, followed by migration under a 5% CO2 atmosphere at 37° C. for one hr. The number of cells, which had migrated to the lower chamber, was counted with a particle count analyzer (CDA-500, SYSMEX CORPORATION), and the percentage migration inhibition was calculated by the following equation: Migration inhibition (%)=(1−number of migrated cells in the presence of test compound/number of migrated cells in the absence of test compound)×100

[2] = biological target: T1, Recombinant Rho kinase (fused protein composed of bovine Rho kinase catalytic region and glutathione S-transferase) (Bos taurus, UniProt Q28021); test: Rho kinase inhibitory activity (phosphorylation of S6 231-239 substrate with γ32P-ATP); assay type: biochemical; conditions: concentration inhibiting substrate phosphorylation by 50%
T1 construct: fused protein composed of bovine Rho kinase catalytic region and glutathione S-transferase; glutathione S-transferase (GST); made in house; host or cells: insect cells infected with baculovirus
Procedure: This permits the substrate to be labeled with the radioisotope.
Thereafter, the substrate was adsorbed to a filter paper. ATP was washed away with a phosphoric acid solution, and the amount of the phosphorylated substrate was then measured with a liquid scintillation counter.

Rho kinase = biological target: T2, Rho kinase (Bos taurus, UniProt Q28021); test: Ex vivo experiment: Rho kinase inhibition by serum of orally dosed SD rats; assay type: in vivo, rat; conditions: hydrochloride 30 mg/kg oral, SD rats (N=4), serum diluted 8 times
T2 construct: fused protein composed of bovine Rho kinase catalytic region and glutathione S-transferase; glutathione S-transferase (GST); made in house; host or cells: insect cells infected with baculovirus
Procedure: Water or a solution of a hydrochloride salt of a test compound (30 mg/kg) in physiological saline was orally administered to SD rats (N=4). […] The serum was diluted 8 times with physiological saline and was added to Rho kinase, substrate, and labeled ATP according to the method described in Pharmacological Test Example 1, and the amount of the phosphorylated substrate was determined. Rho kinase inhibition was calculated according to the following equation: Inhibition (%)=(1−amount of substrate in the case of test compound administration/amount of substrate in the case of water administration)×100

[3] = tested on: Spontaneously hypertensive male rats (SHR); test: Blood pressure depression activity in spontaneously hypertensive rats; assay type: in vivo, rat; conditions: hydrochloride 30 mg/kg oral; systolic pressure 3 to 4 hr after administration; ± standard error, four SHRs
Procedure: Spontaneously hypertensive male rats (SHR, Charles River Japan, Inc.) of 15 weeks old were provided. A solution of a hydrochloride of a compound of Example 45 or 46 (30 mg/kg) in purified water was orally administered to the rats. The systolic pressure of SHR was measured immediately before the administration of the test compound and 3 to 4 hr after the administration of the test compound. The percentage blood pressure depression was calculated by the following equation: Blood pressure depression (%)={(blood pressure before administration of test compound−blood pressure after administration of test compound)/blood pressure before administration of test compound}×100
The blood pressure depression was expressed in terms of the percentage blood pressure depression and the standard error for four SHRs.

[4] = tested on: anti-GBM nephritis model using WKY rats; test: Proteinuria amelioration activity for anti-GBM nephritis model using WKY rats; assay type: in vivo, rat; conditions: mean ± standard error, 6 rats; for Number of cells (ED-1 positive cells per glomerulus): hydrochloride 30 mg/kg oral twice a day, kidney four days after antibody
Procedure: An anti-GBM antibody produced by immunizing domestic rabbits with a rat-derived GBM fraction was caudointravenously administered to WKY male rats of 8 weeks old to induce nephritis. For 3 days from the time 24 hr after the administration of the antibody, a solution of each of the hydrochlorides prepared in Examples 45 and 46 in purified water was orally administered at a dose of 30 mg/kg twice a day. Three days after the administration of the antibody, twenty-four-hours urine was collected to determine the protein level of urine.
Four days after the administration of the antibody, the rats were sacrificed by exsanguination, and the kidney was then harvested and was fixed in 4% paraformaldehyde to prepare a specimen for staining. Next, the specimen thus obtained was immunostained using a mouse-anti-rat macrophage monoclonal antibody (ED-1). The number of ED-1 positive cells per glomerulus was counted.
Likewise, an anti-GBM antibody was caudointravenously administered to WKY male rats of 7 weeks old to induce nephritis. For 4 weeks from the time 24 hr after the administration of the antibody, a solution of the hydrochloride prepared in each of Examples 45 and 46 in purified water was orally administered at a dose of 30 mg/kg twice a day. Four weeks after the administration of the antibody, twenty-four-hours urine was collected to determine the protein level of urine.

[5] = hydrochloride 30 mg/kg oral twice a day for 4 weeks, 24-hr urine four weeks after antibody
[6] = hydrochloride 30 mg/kg oral twice a day for 3 days, 24-hr urine three days after antibody
[7] = blood collection 4 hr after administration

T1 sequence (Q28021 92-354 limits assumed): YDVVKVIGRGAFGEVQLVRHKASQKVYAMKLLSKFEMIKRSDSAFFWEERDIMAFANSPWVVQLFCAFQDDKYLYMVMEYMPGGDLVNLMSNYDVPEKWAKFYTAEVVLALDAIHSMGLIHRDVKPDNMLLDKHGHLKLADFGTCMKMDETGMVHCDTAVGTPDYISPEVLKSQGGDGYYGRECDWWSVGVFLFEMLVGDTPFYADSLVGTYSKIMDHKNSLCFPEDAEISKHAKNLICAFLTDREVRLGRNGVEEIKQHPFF
T2 sequence (Q28021 6-553 limits assumed): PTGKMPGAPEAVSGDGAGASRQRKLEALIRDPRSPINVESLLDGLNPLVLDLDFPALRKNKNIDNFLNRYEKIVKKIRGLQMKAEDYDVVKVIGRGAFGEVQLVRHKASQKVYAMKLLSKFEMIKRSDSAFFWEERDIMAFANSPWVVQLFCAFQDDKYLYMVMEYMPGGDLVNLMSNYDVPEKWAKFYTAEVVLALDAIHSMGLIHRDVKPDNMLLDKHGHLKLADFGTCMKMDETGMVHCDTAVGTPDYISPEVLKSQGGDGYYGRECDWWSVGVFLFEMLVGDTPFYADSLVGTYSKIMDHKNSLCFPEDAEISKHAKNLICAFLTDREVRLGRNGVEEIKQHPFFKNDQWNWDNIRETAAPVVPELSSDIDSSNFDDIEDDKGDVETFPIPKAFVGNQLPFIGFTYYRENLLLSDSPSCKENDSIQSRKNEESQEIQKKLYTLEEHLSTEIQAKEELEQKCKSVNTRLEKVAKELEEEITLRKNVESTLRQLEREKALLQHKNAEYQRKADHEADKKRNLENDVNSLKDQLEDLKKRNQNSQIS

Row | IC50 [2] | Inhibition (%) (Rho kinase; blood collected 3 hr after administration) | Inhibition (%) (Rho kinase; [7]) | Compound | inhibition at 10 µg/mL [1] | Blood pressure depression (%) [3] | Protein level of urine [4, 5] | Protein level of urine [4, 6] | Number of cells (ED-1 positive cells per glomerulus) [4]
1 | 280 nM | 57% |  | Nc1cccc(CN2CCC(Nc3cccc4cnccc34)C2)c1 (centres unmarked) [Example 17, N5-[1-(3-Aminobenzyl)tetrahydro-1H-3-pyrrolyl]-5-isoquinolylamine] | 94% |  |  |  | 
2 | 310 nM |  | 17* % | Nc1cccc(CN2CC[C@H](Nc3cccc4cnccc34)C2)c1 [Example 45, (3S)-N5-[1-(3-Aminobenzyl)tetrahydro-1H-3-pyrrolyl]-5-isoquinolineamine] | 74% | 10.2 ± 3.1% | 779.4 ± 133.9 mg/kg, body weight | 91.2 ± 21.5 mg/kg, body weight | 2.20 ± 0.65
3 | 23 nM |  | 42* % | Nc1cccc(CN2CC[C@@H](Nc3cccc4cnccc34)C2)c1 [Example 46, (3R)-N5-[1-(3-Aminobenzyl)tetrahydro-1H-3-pyrrolyl]-5-isoquinolineamine] | 104% | 25.1 ± 4.4% | 327.6 ± 55.2 mg/kg, body weight | 73.6 ± 9.1 mg/kg, body weight | 1.38 ± 0.68
